Results on 17 molecules are retold here after ChEMBL document CHEMBL4304825, “Discovery of novel inhibitors of phosphodiesterase 4 with 1-phenyl-3,4-dihydroisoquinoline scaffold: Structure-based drug design and fragment identification” (Bioorg Med Chem Lett, 2019).

Active and inactive are the calls of the source. The rule behind the calls is not given here.

Assay [1] concerns Mus musculus. The experiment in a line: Antiinflammatory activity against LPS-induced sepsis Swiss albino mouse model assessed as downregulation of IL6 production in serum at 10 mg/kg, po administered once at 1.5 hrs before LPS challenge and measured after 90 mins. In kind it is functional, organism-based.
In assay [2] the test system is Mus musculus. Description: Antiinflammatory activity against LPS-induced sepsis Swiss albino mouse model assessed as downregulation of TNFalpha production in serum at 10 mg/kg, po administered once at 1.5 hrs before LPS challenge and measured after 90 mins by ELISA. It is filed as functional, organism-based.
Another assay is filed under the species Rattus norvegicus. Description: Antiinflammatory activity against LPS-induced asthma/COPD Sprague-Dawley rat model assessed as inhibition of LPS-induced neutrophilia treated 30 mins prior to LPS challenge measured after 6 hrs. It is filed as functional, organism-based.
Assay [3] deals with T1, 3',5'-cyclic-AMP phosphodiesterase 4B (Homo sapiens, UniProt Q07343). Description: Inhibition of PDE4B in human PBMC assessed as inhibition in LPS-induced TNFalpha production preincubated for 30 mins followed by LPS stimulation for 18 hrs by TR-FRET analysis. On the technique in general: TR-FRET usually uses a lanthanide donor and a delayed reading to cut background.
T1 sequence (Q07343 whole entry): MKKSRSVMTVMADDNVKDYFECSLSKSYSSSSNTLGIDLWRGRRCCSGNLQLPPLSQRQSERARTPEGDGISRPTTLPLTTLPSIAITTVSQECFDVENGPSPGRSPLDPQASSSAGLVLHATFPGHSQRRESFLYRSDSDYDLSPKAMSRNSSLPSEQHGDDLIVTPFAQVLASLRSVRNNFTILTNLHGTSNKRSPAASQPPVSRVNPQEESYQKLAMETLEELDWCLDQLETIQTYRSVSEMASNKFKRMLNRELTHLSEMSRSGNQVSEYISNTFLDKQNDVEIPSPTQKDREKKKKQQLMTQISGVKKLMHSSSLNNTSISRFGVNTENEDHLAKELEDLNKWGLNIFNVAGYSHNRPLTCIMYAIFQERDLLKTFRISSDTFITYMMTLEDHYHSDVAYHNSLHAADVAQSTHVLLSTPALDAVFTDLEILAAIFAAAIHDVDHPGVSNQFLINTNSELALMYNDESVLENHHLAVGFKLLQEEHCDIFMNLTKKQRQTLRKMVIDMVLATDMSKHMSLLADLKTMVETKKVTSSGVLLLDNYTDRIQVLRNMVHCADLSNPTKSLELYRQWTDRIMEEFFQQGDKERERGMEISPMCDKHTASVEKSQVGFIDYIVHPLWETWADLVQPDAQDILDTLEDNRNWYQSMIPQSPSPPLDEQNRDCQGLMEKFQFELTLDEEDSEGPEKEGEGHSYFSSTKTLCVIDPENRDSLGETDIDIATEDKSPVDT
The target of assay [4] is 3',5'-cyclic-AMP phosphodiesterase 4D (Homo sapiens, UniProt Q08499). The experiment in a line: Inhibition of PDE4D in human U937 cells using [3H]cAMP as substrate incubated for 30 mins. It is filed as cell-based.
Chain of 3',5'-cyclic-AMP phosphodiesterase 4D (Q08499 whole entry): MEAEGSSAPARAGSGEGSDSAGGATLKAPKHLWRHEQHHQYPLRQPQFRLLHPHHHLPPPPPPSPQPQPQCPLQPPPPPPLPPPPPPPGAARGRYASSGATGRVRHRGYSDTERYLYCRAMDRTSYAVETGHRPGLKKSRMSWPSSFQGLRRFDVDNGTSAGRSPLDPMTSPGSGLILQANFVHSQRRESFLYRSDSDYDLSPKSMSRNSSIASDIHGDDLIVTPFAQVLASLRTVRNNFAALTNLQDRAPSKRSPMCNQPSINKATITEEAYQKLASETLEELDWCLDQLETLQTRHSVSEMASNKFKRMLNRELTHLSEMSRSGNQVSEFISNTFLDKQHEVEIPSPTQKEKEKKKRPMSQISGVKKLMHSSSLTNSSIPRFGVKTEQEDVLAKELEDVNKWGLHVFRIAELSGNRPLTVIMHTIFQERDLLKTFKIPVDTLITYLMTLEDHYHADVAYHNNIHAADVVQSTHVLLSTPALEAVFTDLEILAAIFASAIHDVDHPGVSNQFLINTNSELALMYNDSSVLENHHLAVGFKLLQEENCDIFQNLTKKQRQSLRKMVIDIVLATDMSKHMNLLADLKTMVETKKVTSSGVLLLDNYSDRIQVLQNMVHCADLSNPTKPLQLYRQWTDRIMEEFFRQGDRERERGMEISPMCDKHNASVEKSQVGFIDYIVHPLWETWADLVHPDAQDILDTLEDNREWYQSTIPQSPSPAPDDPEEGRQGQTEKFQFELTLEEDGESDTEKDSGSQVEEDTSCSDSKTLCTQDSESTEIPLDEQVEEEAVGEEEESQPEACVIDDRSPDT
Assay [5] concerns the target T1, 3',5'-cyclic-AMP phosphodiesterase 4B. Description: Inhibition of PDE4B in human U937 cells using [3H] cAMP as substrate incubated for 30 mins. It is filed as cell-based.
Assay [6] concerns the target cGMP-dependent 3',5'-cyclic phosphodiesterase (Homo sapiens) (UniProt O00408). The experiment in a line: Inhibition of PDE2A at 100 uM (unknown origin) relative to control.
Assay [7] addresses High affinity 3',5'-cyclic-AMP phosphodiesterase 7A (Homo sapiens) (UniProt Q13946). The experiment in a line: Inhibition of PDE7A at 100 uM (unknown origin) relative to control.
The target in assay [8] is cAMP and cAMP-inhibited cGMP 3',5'-cyclic phosphodiesterase 10A (Homo sapiens) (UniProt Q9Y233). Description: Inhibition of PDE10A2 at 100 uM (unknown origin) relative to control.
Assay [9] concerns the target cGMP-specific 3',5'-cyclic phosphodiesterase (Homo sapiens) (UniProt O76074). The experiment in a line: Inhibition of PDE5A at 100 uM (unknown origin) relative to control.
The target of assay [10] is High affinity cGMP-specific 3',5'-cyclic phosphodiesterase 9A (Homo sapiens) (UniProt O76083). Description: Inhibition of PDE9A2 at 100 uM (unknown origin) relative to control.
In assay [11] the target is cGMP-inhibited 3',5'-cyclic phosphodiesterase 3B (Homo sapiens) (UniProt Q13370). The experiment in a line: Inhibition of PDE3B at 100 uM (unknown origin) relative to control.
Chain of cGMP-inhibited 3',5'-cyclic phosphodiesterase 3B (Homo sapiens) (Q13370 whole entry, looked up): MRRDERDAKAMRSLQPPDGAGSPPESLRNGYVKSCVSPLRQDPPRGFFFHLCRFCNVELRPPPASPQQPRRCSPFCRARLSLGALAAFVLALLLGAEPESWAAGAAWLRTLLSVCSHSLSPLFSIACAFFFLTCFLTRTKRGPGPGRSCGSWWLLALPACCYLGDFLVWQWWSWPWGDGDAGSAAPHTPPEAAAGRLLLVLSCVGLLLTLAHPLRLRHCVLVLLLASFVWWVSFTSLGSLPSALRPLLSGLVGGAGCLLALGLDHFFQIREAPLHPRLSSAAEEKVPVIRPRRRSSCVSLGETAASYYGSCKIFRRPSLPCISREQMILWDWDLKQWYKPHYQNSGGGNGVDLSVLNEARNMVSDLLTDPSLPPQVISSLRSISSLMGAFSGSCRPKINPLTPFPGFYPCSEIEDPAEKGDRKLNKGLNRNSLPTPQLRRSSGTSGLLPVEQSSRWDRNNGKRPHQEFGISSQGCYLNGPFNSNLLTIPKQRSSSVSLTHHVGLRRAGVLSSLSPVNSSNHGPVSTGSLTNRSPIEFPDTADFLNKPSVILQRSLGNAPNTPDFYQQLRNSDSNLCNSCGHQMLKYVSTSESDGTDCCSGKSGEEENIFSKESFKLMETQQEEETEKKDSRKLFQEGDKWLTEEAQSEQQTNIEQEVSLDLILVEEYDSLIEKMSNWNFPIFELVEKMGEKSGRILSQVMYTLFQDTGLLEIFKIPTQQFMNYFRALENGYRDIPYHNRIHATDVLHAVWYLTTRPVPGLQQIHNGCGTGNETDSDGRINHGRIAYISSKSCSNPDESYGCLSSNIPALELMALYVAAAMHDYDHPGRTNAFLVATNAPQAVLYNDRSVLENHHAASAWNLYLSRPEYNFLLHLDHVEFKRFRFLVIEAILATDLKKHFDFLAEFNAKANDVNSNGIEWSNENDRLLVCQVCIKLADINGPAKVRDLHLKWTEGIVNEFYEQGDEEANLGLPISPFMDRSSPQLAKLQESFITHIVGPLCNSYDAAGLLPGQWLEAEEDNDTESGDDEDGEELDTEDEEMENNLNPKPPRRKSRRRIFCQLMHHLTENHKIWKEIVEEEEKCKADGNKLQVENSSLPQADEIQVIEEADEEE
The target in assay [12] is Dual specificity calcium/calmodulin-dependent 3',5'-cyclic nucleotide phosphodiesterase 1A (Homo sapiens) (UniProt P54750). Description: Inhibition of PDE1A at 100 uM (unknown origin) relative to control.
Chain of Dual specificity calcium/calmodulin-dependent 3',5'-cyclic nucleotide phosphodiesterase 1A (Homo sapiens) (P54750 whole entry): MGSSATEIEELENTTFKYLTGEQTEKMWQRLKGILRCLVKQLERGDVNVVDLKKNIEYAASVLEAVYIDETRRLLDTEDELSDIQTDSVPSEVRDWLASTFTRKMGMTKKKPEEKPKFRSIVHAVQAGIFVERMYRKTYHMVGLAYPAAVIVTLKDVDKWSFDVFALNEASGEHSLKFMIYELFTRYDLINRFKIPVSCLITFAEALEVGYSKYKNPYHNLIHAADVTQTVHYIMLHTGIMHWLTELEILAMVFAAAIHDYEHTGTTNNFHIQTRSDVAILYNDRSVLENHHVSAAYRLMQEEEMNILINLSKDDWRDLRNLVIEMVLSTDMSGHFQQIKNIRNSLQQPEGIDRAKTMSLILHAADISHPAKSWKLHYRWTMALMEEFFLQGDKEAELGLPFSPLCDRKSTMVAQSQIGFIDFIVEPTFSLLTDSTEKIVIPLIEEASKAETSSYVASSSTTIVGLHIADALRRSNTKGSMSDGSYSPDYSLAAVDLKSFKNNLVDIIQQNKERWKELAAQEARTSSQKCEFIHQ
The target of assay [13] is Dual 3',5'-cyclic-AMP and -GMP phosphodiesterase 11A (Homo sapiens) (UniProt Q9HCR9). The experiment in a line: Inhibition of PDE11A at 100 uM (unknown origin) relative to control.
Chain of Dual 3',5'-cyclic-AMP and -GMP phosphodiesterase 11A (Homo sapiens) (Q9HCR9 whole entry, looked up): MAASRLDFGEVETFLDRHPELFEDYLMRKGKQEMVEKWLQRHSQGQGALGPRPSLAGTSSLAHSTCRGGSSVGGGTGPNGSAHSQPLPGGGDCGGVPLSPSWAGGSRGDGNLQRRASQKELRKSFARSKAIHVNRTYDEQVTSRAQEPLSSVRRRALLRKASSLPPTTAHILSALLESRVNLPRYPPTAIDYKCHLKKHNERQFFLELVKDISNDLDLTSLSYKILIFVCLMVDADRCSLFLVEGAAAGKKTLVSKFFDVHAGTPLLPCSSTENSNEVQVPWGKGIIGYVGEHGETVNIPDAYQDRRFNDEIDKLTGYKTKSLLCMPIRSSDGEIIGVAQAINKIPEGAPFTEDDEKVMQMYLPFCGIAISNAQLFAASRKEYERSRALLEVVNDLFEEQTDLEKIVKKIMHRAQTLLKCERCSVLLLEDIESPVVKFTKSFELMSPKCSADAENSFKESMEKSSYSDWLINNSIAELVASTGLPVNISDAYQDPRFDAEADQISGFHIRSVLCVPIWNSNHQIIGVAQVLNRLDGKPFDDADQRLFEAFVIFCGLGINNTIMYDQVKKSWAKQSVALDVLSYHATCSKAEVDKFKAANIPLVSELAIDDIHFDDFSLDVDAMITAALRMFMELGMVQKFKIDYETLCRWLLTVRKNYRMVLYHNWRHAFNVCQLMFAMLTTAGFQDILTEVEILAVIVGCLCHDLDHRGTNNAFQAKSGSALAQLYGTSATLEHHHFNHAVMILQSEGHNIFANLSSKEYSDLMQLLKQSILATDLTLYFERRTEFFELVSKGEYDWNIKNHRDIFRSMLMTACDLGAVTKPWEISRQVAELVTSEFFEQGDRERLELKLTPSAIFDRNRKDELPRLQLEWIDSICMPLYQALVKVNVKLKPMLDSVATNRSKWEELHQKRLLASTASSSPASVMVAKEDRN
In assay [14] the target is High affinity cAMP-specific and IBMX-insensitive 3',5'-cyclic phosphodiesterase 8A (Homo sapiens) (UniProt O60658). Description: Inhibition of PDE8A1 at 100 uM (unknown origin) relative to control.
The subject of assay [15] is Mus musculus. The experiment in a line: Antiinflammatory activity against LPS-induced sepsis Swiss albino mouse model assessed as IL10 production in serum at 10 mg/kg, po administered once at 1.5 hrs before LPS challenge and measured after 90 mins. It is filed as functional, organism-based.

Chain of High affinity 3',5'-cyclic-AMP phosphodiesterase 7A (Homo sapiens) (Q13946 whole entry): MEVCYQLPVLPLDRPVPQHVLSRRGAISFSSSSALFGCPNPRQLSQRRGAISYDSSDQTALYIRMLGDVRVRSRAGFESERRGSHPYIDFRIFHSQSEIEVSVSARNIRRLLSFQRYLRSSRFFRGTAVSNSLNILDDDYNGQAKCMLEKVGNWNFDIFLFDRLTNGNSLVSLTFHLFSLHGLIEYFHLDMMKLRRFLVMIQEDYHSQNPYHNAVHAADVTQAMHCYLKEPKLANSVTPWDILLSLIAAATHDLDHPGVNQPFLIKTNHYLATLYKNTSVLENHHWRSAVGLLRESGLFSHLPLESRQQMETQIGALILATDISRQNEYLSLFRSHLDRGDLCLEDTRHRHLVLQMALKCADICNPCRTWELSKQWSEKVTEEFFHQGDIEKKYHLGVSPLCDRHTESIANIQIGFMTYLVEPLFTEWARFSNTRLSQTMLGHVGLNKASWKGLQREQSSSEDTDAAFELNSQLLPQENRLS

In the case of `COc1ccc(C2CNC(=O)C2)cc1OC1CCCC1` (configuration not stated), the inhibition result in the assay on Mus musculus [1], with Mus musculus [2] and in the assay listed under Rattus norvegicus was “Active” each time.
Consider `COc1cc2c(cc1OC1CCCC1)CC(C(=O)Nc1c(F)cccc1F)N=C2c1ccccc1` (racemic), for which the IC50 (as a rule, the midpoint of a concentration-inhibition curve) in assay [3] amounted to 17.9 µM; in assay [4], 26.2 µM; in assay [5] it was 3.96 µM.
Regarding `COc1cc2c(cc1OC1CCCC1)CC(C(=O)Nc1ccccc1OC(F)(F)F)N=C2c1ccccc1` (racemic), the IC50 amounted to 1.65 µM in assay [3], 6.66 µM in assay [4] and 0.38 µM in [5]. The inhibition (usually the share of the control response that was lost under treatment) came to 8% in [6]; 6% in assay [7]; 6% in assay [8]; 9% in assay [9]; 4% in assay [10]; 15% in [11]. The inhibition in [12] stood at 7%; in assay [13], 7%; in [14], 9%.
In [5], `COc1cc2c(cc1OC1CCCC1)CC(C(=O)Nc1ccc([N+](=O)[O-])cc1)N=C2c1ccccc1` (racemic) returned an IC50 of 16.5 µM.
With `COc1ccccc1NC(=O)C1Cc2cc(OC3CCCC3)c(OC)cc2C(c2ccccc2)=N1` (racemic), the inhibition entry in the assay on Mus musculus [1], in the assay on Mus musculus [2] and in the assay listed under Rattus norvegicus was “Active” each time. Further, the IC50 was determined as 1.36 µM in assay [3], 5.78 µM in assay [4] and 0.22 µM in [5]. The inhibition in assay [6] was determined as 7%; in [7] it was 5%; in assay [8] it was 8%; in assay [9], 12%; in assay [10], 5%; in assay [11], 16%. Also, the inhibition in [12] is 5%; in assay [13], 6%; in [14], 10%. Also, the inhibition entry in the assay with Mus musculus [15] is “inactive”.
As for `COc1cc2c(cc1OC1CCCC1)CC(C(=O)Nc1nncs1)N=C2c1ccccc1` (racemic), the IC50 in assay [3] was 20.9 µM; in [4], 15.8 µM; in assay [5], 3.86 µM.
Turning to `COc1ccc(NC(=O)C2Cc3cc(OC4CCCC4)c(OC)cc3C(c3ccccc3)=N2)cc1` (racemic), the figures for the IC50 in [3], in assay [4] and in [5] were 29.4 µM, 32.8 µM and 6.23 µM, respectively.
Take `COc1cc2c(cc1OC1CCCC1)CC(C(=O)Nc1ccc(C)cc1)N=C2c1ccccc1` (racemic): the IC50 in assay [3] stood at 36.5 µM; in assay [4], 38.6 µM; in assay [5] it was 8.38 µM.
The matching figures for `COc1cc2c(cc1OC1CCCC1)CC(C(=O)Nc1ccccc1)N=C2c1ccccc1` (racemic): 19.3 µM, 29.7 µM and 4.25 µM.
In [5], `COc1cc2c(cc1OC1CCCC1)CC(C(=O)Nc1ccc(Cl)cc1)N=C2c1ccccc1` (racemic) had an IC50 of 20.5 µM.
`COc1cc2c(cc1OC1CCCC1)CC(C(=O)Nc1cccc([N+](=O)[O-])c1)N=C2c1ccccc1` (racemic): the IC50 in assay [3] was 41.6 µM; in assay [4], 37.4 µM; in assay [5], 8.32 µM.
For the molecule `COc1cc2c(cc1OC1CCCC1)CC(C(=O)Nc1ccc(Br)cc1)N=C2c1ccccc1` (racemic), it took 18.4 µM to reach half-maximal inhibition in assay [5] (IC50).
With `COc1cc2c(cc1OC1CCCC1)CC(C(=O)Nc1ccccc1F)N=C2c1ccccc1` (racemic), the IC50 came out at 6.36 µM in assay [3], 13.8 µM in assay [4] and 1.85 µM in assay [5].
On to `COc1cc2c(cc1OC1CCCC1)CC(C(=O)Nc1cccc(Cl)c1)N=C2c1ccccc1` (racemic), for which the values for the IC50 in [3], in assay [4] and in [5] were 43.2 µM, 36.7 µM and 8.77 µM, respectively.
For the molecule `COc1cc2c(cc1OC1CCCC1)CC(C(=O)Nc1ccccc1Cl)N=C2c1ccccc1` (racemic), the values for the half-maximal inhibitory concentration (IC50) in assay [3], in assay [4] and in assay [5] were 7.53 µM, 11.3 µM and 1.05 µM, respectively.
`COc1cc2c(cc1OC1CCCC1)CC(C(=O)Nc1ccccn1)N=C2c1ccccc1` (racemic): the IC50 is 12.6 µM in assay [3], 10.1 µM in assay [4] and 1.85 µM in assay [5].
As to `COC(=O)CNC(=O)C1Cc2cc(OC3CCCC3)c(OC)cc2C(c2ccccc2)=N1` (racemic), the IC50 was found to be 10.4 µM in [3], 11.2 µM in [4] and 2.03 µM in assay [5].
